According to patent US11578056B2, “Solid forms comprising (S)-2-(2,6-dioxopiperidin-3-yl)-4-((2-fluoro-4-((3-morpholinoazetidin-1-yl)methyl)benzyl)amino)isoindoline-1,3-dione and salts thereof, and compositions comprising and methods of using the same” (Celgene Corporation, priority 2019, dated 2023):

Tests used:
Experiment in all cases: Hematological cell line viability/apoptosis flow cytometry assay
Type in all cases: cell-based
JJN-3 cell line = details: JJN-3 (MM, PCL), 120 h
Description: (§1) Cell Proliferation and Viability Assay Using Hematological Cell Lines: The following exemplary anti-proliferative assay uses exemplary hematological cell lines in the following. The in vitro growth inhibitory activity of Compound 1 described herein was evaluated using a 384-well flow cytometry assay.
(§2) The cell lines were plated in 384-well flat bottom plates and assessed with increasing concentrations of compound ranging from 0.00015 to 10 μM or dimethyl sulfoxide (DMSO) control. The final concentration of DMSO was 0.1% (v/v). Following the addition of Compound 1 or DMSO and incubation for 120 hours, cell number and cell death were analyzed by flow cytometry (Attune®, Thermo Fisher) using Annexin V and the live-cell impermeant DNA dye, DRAQ7. Phosphatidylserine translocates from the inner layer to the outer layer of the cell membrane early in apoptosis and Annexin V binds to the exposed phosphatidylserine found on the surface of an apoptotic cell. The vital dye DRAQ7 is excluded by intact live cells and only stains cells that have died as a result of apoptosis or necrosis.
(§3) Flow cytometry data analysis was then performed using the Flow Jo_v10 software to determine the number of viable cells (Annexin V and DRAQ7 double negative staining cells) and percentage of apoptotic cells (Annexin V positive cells) for each condition. The live cell count for every concentration was normalized to the DMSO control (considered as 100%) to calculate the percentage of viable cells remaining after treatment and graphed using GraphPad Prism 7.03. The IC50 (50% inhibitory concentration) and Emax (maximum efficacy achieved) values were then calculated by performing nonlinear regression curve fitting using log(inhibitor) vs. normalized response—variable slope analysis on GraphPad Prism 7.03. Area under the curve (AUC) was calculated by performing area under curve analysis on GraphPad Prism 7.03. Similarly, for apoptosis analysis, the percentage of apoptosis combining both “early” (Annexin V positive and DRAQ7 negative) and “late” apoptosis (Annexin V and DRAQ7 positive) cell gates relative to DMSO was graphed using GraphPad Prism 7.03. The AUC, EC50 (concentration of compound that produces half-maximal apoptosis response) and Ymax (maximal percentage of apoptosis achieved) values from apoptosis curves were calculated by performing area under curve analysis and nonlinear regression curve fitting using log(agonist) vs. normalized response—Variable slope analysis on GraphPad Prism 7.03.
(§4) Dose-response proliferation curves for the panel of hematological cell lines and non-linear curve-fit regression were used to determine IC50, AUC, and Emax for % viable cells (Emax for viability varies between 100 at low doses and 0 at high doses, which corresponds to inhibition of all viable cells), and dose-response apoptosis curves were used to determine the EC50, AUC, and Ymax for % apoptosis (Ymax for apoptosis varies from 0 at low doses and 100 at higher doses which corresponds to death of all cells). Tumor cells were exposed to serial dilutions (0.00015 to 10 μM) of Compound 1 or dimethyl sulfoxide (DMSO) control for 5 days. Viability and apoptosis for all cell lines was determined by Annexin V/7-aminoactinomycin D (7-AAD) flow cytometry.

RL cell line = details: RL (FL); 120 h
Description: as §1, §2, §3, §4

OCI-LY18 cell line = details: OCI-LY18 (DLBCL); 120 h
Description: as §1, §2, §3, §4

Mino cell line = details: Mino (MCL); 120 h
Description: as §1, §2, §3, §4

KARPAS-1106P cell line = details: KARPAS-1106P (DLBCL PMBL); 120 h
Description: as §1, §2, §3, §4

OCI-LY1 cell line = details: OCI-LY1 (DLBCL GCB); 120 h
Description: as §1, §2, §3, §4

CII cell line = details: CII (CLL), 120 h
Description: as §1, §2, §3, §4

SU-DHL-16 cell line = details: SU-DHL-16 (DLBCL GCB); 120 h
Description: as §1, §2, §3, §4

I83-E95 cell line = details: I83-E95 (CLL), 120 h
Description: as §1, §2, §3, §4

Rec-1 cell line = details: Rec-1 (MCL); 120 h
Description: as §1, §2, §3, §4

Karpas-299 cell line = details: Karpas-299 (TCL), 120 h
Description: as §1, §2, §3, §4

CARNAVAL cell line = details: CARNAVAL (DLBCL), 120 h
Description: as §1, §2, §3, §4

PGA1 cell line = details: PGA1 (CLL), 120 h
Description: as §1, §2, §3, §4

OCI-LY19 cell line = details: OCI-LY19 (DLBCL GCB); 120 h
Description: as §1, §2, §3, §4

[1] = Homo sapiens, read-out: % Viable Cells IC50

Q: Which results are given for `O=C1CC[C@H](N2C(=O)c3cccc(NCc4ccc(CN5CC(N6CCOCC6)C5)cc4F)c3C2=O)C(=O)N1` [Compound 1, (S)-2-(2,6-dioxopiperidin-3-yl)-4-((2-fluoro-4-((3-morpholinoazetidin-1-yl)methyl)benzyl)amino)isoindoline-1,3-dione]?
A: IC50 (JJN-3 cell line; [1]): 0.4 nM; % Viable Cells AUC (JJN-3 cell line): 278.2; % Viable Cells Emax (JJN-3 cell line): 21.6%; Apoptosis AUC (JJN-3 cell line): 57.97; Apoptosis Ymax (JJN-3 cell line): 26%; % Viable Cells AUC (RL cell line): 234.8; % Viable Cells Emax (RL cell line): 21.55%; Apoptosis AUC (RL cell line): 115.9; Apoptosis Ymax (RL cell line): 13.93%; % Viable Cells AUC (OCI-LY18 cell line): 1.965; % Viable Cells Emax (OCI-LY18 cell line): 0.05973%; Apoptosis AUC (OCI-LY18 cell line): 965.2; Apoptosis Ymax (OCI-LY18 cell line): 97.44%; % Viable Cells AUC (Mino cell line): 62.67; % Viable Cells Emax (Mino cell line): 5.638%; Apoptosis AUC (Mino cell line): 968.2; Apoptosis Ymax (Mino cell line): 97.04%; % Viable Cells AUC (KARPAS-1106P cell line): 22.22; % Viable Cells Emax (KARPAS-1106P cell line): 0.1698%; Apoptosis AUC (KARPAS-1106P cell line): 885.2; Apoptosis Ymax (KARPAS-1106P cell line): 97.08%; % Viable Cells AUC (OCI-LY1 cell line): 22.77; % Viable Cells Emax (OCI-LY1 cell line): 1.037%; Apoptosis AUC (OCI-LY1 cell line): 852.3; Apoptosis Ymax (OCI-LY1 cell line): 90.09%; % Viable Cells AUC (CII cell line): 926.1; % Viable Cells Emax (CII cell line): 78.23%; Apoptosis AUC (CII cell line): 238.1; Apoptosis Ymax (CII cell line): 26.11%; EC50 (CII cell line): 145 nM; IC50 (CII cell line; read-out: % Viable Cells IC50): > 10000 nM; % Viable Cells AUC (SU-DHL-16 cell line): 149.7; % Viable Cells Emax (SU-DHL-16 cell line): 7.137%; Apoptosis AUC (SU-DHL-16 cell line): 492.6; Apoptosis Ymax (SU-DHL-16 cell line): 60.79%; % Viable Cells AUC (I83-E95 cell line): 259.2; % Viable Cells Emax (I83-E95 cell line): 21.6%; Apoptosis AUC (I83-E95 cell line): 358.4; Apoptosis Ymax (I83-E95 cell line): 40.69%; EC50 (I83-E95 cell line): 61.1 nM; IC50 (I83-E95 cell line; read-out: % Viable Cells IC50): 17.3 nM; % Viable Cells AUC (Rec-1 cell line): 281.8; % Viable Cells Emax (Rec-1 cell line): 21.04%; Apoptosis AUC (Rec-1 cell line): 508.5; Apoptosis Ymax (Rec-1 cell line): 57.27%; EC50 (Karpas-299 cell line; Homo sapiens): 168000 nM; IC50 (Karpas-299 cell line; [1]): 12 nM; % Viable Cells AUC (Karpas-299 cell line): 283.7; % Viable Cells Emax (Karpas-299 cell line): 8.43%; Apoptosis AUC (Karpas-299 cell line): 14.51; Apoptosis Ymax (Karpas-299 cell line): 8.0%; % Viable Cells AUC (CARNAVAL cell line): 110.6; % Viable Cells Emax (CARNAVAL cell line): 7.134%; Apoptosis AUC (CARNAVAL cell line): 708.7; Apoptosis Ymax (CARNAVAL cell line): 77.84%; EC50 (CARNAVAL cell line): 152 nM; IC50 (CARNAVAL cell line; read-out: % Viable Cells IC50): 9.12 nM; % Viable Cells AUC (PGA1 cell line): 736.7; % Viable Cells Emax (PGA1 cell line): 69.21%; Apoptosis AUC (PGA1 cell line): 48.94; Apoptosis Ymax (PGA1 cell line): 5.075%; EC50 (PGA1 cell line): 122 nM; IC50 (PGA1 cell line; read-out: % Viable Cells IC50): > 10000 nM; % Viable Cells AUC (OCI-LY19 cell line): 72.49; % Viable Cells Emax (OCI-LY19 cell line): 3.228%; Apoptosis AUC (OCI-LY19 cell line): 706.2; Apoptosis Ymax (OCI-LY19 cell line): 80.91%
